Assays:
[1] = system: dopaminergic neurons of MPTP-intoxicated mice; conditions: 200 mg/kg body wt/day from 3 h after last MPTP, 7 d
Procedure: Mice receiving NaPB (200 mg/kg body wt/day) from 3 h after the last injection of MPTP were sacrificed 7d after the last injection of MPTP followed by TH immunostaining of SNpc (A) and striatum (B), counting of TH-positive neurons in SNpc (C), quantification of TH-positive fibers in striatum (D), assay of neurotransmitters in striatum (E), and quantification of GSH in nigra (F). Data are means+SEM of eight mice per group. ^ap<0.0001 vs saline group; ^bp<0.0001 vs the MPTP group.
For acute MPTP intoxication, mice received four intraperitoneal (i.p.) injections of MPTP-HCl (18 mg/kg of free base; Sigma Chemical Co., St. Louis, Mo.) in saline at 2 hr intervals. Control animals received only saline. For chronic MPTP intoxication, mice received 10 injections of MPTP (s.c.; 25 mg/kg body weight) together with 10 injections of probenecid (i.p.; 250 mg/kg body weight) at an interval of 3.5 d.
Therefore, for short-term treatment, mice with acute MPTP 3 h after the last injection of MPTP. […]
Immunohistochemistry and quantitative morphology: Seven days after MPTP intoxication, mice were sacrificed and their brains fixed, embedded, and processed for tyrosine hydroxylase (TH) staining. […] Quantitation of striatal TH immunostaining was performed. […]

NF-κB = assay: Transcriptional activity of NF-κB (PBIIX-Luc reporter) in BV-2 microglial cells; type: cell-based, mouse
Procedure: Transcriptional activity of NF-κB: Transcriptional activity of NF-κB was assayed. […] After 24 h of transfection, […], and firefly and Renilla luciferase activities were recorded in a TD-20/20 Luminometer (Turner Designs, Sunnyvale, Calif.) by analyzing total cell extract according to standard instructions provided in the Dual Luciferase Kit (Promega), Relative luciferase activity of cell extracts was typically represented as (firefly luciferase value/Renilta luciferase value)×10^−3.

TNF-α = conditions: different concentrations, 6 h preincubation, 1 μM MPP+ 5 h
Procedure: (§1) Mouse BV-2 microglial cells were treated with different concentrations of NaPB for 6 h followed by stimulation with 1 μM. MPP under serum-free condition. After 5 h of stimulation, the mRNA expression of iNOS, IL-1β and TNF-α was monitored by semi-quantitative RT-PCR (A) and quantitative real-time PCR (C, iNOS; D, IL-1β; E, TNF-α). After 24 h of stimulation, the protein expression of iNOS was monitored by Western blot (B).
(§2) Glial inflammation is a critical component of PD pathogenesis which is mirrored in MPTP mouse models. The neurotoxic effect of MPTP depends on its conversion into MPP+. In glial cells, MAO-B converts MPTP to MPP+, which then leads to glial activation. MPP+ is able to stimulate the microglial expression of inflammatory molecules including NO, TNF-α, IL-1β, and IL-6. Although, a well characterized receptor for MPP+ was not known in microglial cells until recent past, low dose of MPP+ stimulates microglial activation via the engagement of cysteinyl leukotriene receptor (CysLT1R), MPP+ dependent activation of CysLT1R and its subsequent translocation from plasma membrane to cytosol plays a critical role in the process of microglial activation. Therefore, we investigated MPP+ could induce the expression of proinflammatory molecules microglia and if NaPB suppressed such induction.
(§3) Real-time PCR analysis: It was performed in the ABI-Prism7700 sequence detection system (Applied Biosystems, Foster City, Calif.) using TaqMan Universal Master mix and optimized concentrations of FAM-labeled probes and primers.

IL-1β = conditions: different concentrations, 6 h preincubation, 1 μM MPP+ 5 h
Procedure: as §1, §2, §3

iNOS = system: iNOS
Procedure: as §1, §2, §3

BV-2 microglial cells = conditions: 500 μM, 6 h, 1 μM MPP+ 15 min
Procedure: Cells were treated with 500 μM NaPB for 6 h followed by stimulation with 1 μM MPP+. At 15 min of stimulation, the generation of ROS was monitored by carboxy-H2DCFDA (A).
We examined if Parkinsonian toxin MPP+ induced the production of ROS from microglia and if NaPB could attenuate such ROS production. To monitor the generation of intracellular ROS in BV-2 microglial cells, we used a cell-permeant fluorescent probe.
Monitoring microglial ROS production: Cells, cultured in 8-well chamber slides, were treated with MPP+ under serum-free condition. At different time points of stimulation, supernatants were removed and cells were washed with Hank's buffered salt solution (HBSS) followed by addition of 100 μl of 25 μM carboxy-H2DCFDA to each well for 30 min of incubation. During the last five minutes of incubation, Hoechst 33342 was added to each well at a dilution of 1:1000 for staining nuclei. Cells were then washed with HBSS, mounted with DPX mounting media and observed under an Olympus 1×81 fluorescent microscope.

primary mouse microglia = assay: LPS-induced NO (nitrite) production in primary mouse microglia; type: cell-based
Procedure: Primary mouse microglia were treated with different concentrations of NaPB for 6 h followed by stimulation with LPS under serum-free condition. After 24 h of stimulation, concentrations of nitrite were measured in supernatants (A) and the level of iNOS protein was monitored in cells by Western blot (B). […] After 5 h of stimulation, the expression of iNOS mRNA was monitored by semi-quantitative RT-PCR (C). Cells preinctibated with different concentration of trichostatin A (TSA) and sodium butyrate (NaBu) for 6 h were stimulated with LPS for 24 h under serum-free condition followed by monitoring the level of nitrite in supernatants (p). […] Primary human astroglia isolated from fetal brain tissues were treated with different concentrations of NaPB for 6 h followed by stimulation with IL-1β under serum-free condition. After 48 h of stimulation, concentrations of nitrite (E) were measured in supernatants. Human astroglia plated at 70-80% confluence in 12-well plates were co-transfected with 0.25 μg of phiNOS(7.2)Luc and 12.5 ng of pRL-TK using the Lipofectamine-Plus (Invitrogen). Twenty-four h after transfection, cells received NaPB. After 6 h of incubation, cells were stimulated with IL-1β (20 ng/ml) for 12 h. Firefly (ff-Luc) and Renilla (r-Luc) luciferase activities were obtained by analyzing the total cell extract (F).
Activated microglia and astroglia are known to produce excessive amount of NO having the potential of damaging neurons in neurodegenerative disorders. We investigated the effect of NaPB on the expression of iNOS in microglia. LPS is a prototype inducer of various proinflammatory molecules in different cell types including mouse microglia. Therefore, primary mouse microglia preincubated with different doses of NaPB for 6 h were stimulated with LPS under serum-free condition. […] We used trichostatin A (TSA) and sodium butyrate (NaBu) for this purpose.
Isolation of Mouse Microglia: Microglia were isolated from mixed glial cultures. Briefly, on day 7-9, the mixed glial cultures were washed three times with Dulbecco's modified Eagle's medium/F-12 and subjected to shaking at 240 rpm for 2 h at 37° C. on a rotary shaker. The floating cells were washed and seeded on to plastic tissue culture flasks and incubated at 37° C. for 1 h. The attached cells were seeded onto new plates for further studies. […] Mouse BV-2 microglial cells (kind gift from Virginia Bocchini of Universityof Perugia) were also maintained and induced as indicated above.

NF-κB p65 = conditions: 200 mg/kg body wt/day gavage from 3 h after last MPTP; 24 h after last MPTP
From the text: Twenty-four h after the last injection of MPTP, ventral midbrain sections were immunostained for p65 (low magnification). Midbrain sections of MPTP-intoxicated mice were also double-labeled for p65 and glial cell markers (GFAP for astrocytes and CD11b for microglia). Results represent three independent experiments. D) NF-κB p65 positive cells counted in four nigral sections (two images per slide) from each of four mice in an Olympus IX81 fluorescence microscope using the MicroSuite™ imaging software are mentioned as cells/mm2. ^ap<0.0001 vs saline-control; ^bp<0.0001 vs MPTP.
Next, mice were treated with NaPB (200 mg/kg body wt/day) via gavage from 3 h after the last injection of MPTP and the activation of NF-κB was examined 24 h after the last injection of MPTP.
For acute MPTP intoxication, mice received four intraperitoneal (i.p.) injections of MPTP-HCl (18 mg/kg of free base; Sigma Chemical Co., St. Louis, Mo.) in saline at 2 hr intervals. Control animals received only saline.
For immunofluorescence staining on fresh frozen sections, rat anti-mouse CD11b (1:100), goat anti-mouse GFAP (1:100), rabbit anti NF-κB p65 (1:100), goat anti-NF-κB p65 (1:100), rabbit anti NF-κB p50 (1:100), and rabbit anti-mouse iNOS (1:250) were used. The samples were mounted and observed under a Bio-Rad MRC1024ES confocal laser scanning microscope.

MPTP-intoxicated mice = conditions: NaPB 200 mg/kg body wt/day from 3 h after last MPTP; MPTP alone approximately 72% loss
Procedure: We monitored the level of nigral GSH by HPLC.
Analysis of GSH: Nigral tissues were dissected and then sonicated in 0.2M perchloric acid solution followed by centrifugation of nigral extracts at 12,000 rpm for 10 mins at 4° C. Resulting supernatants were analyzed for GSH in Complete Stand-Alone HPLC-ECD System EiCOMHTEC-500 using gold working electrode (Eicorn We-AU) and mobile phase containing 99% 0.1M sodium phosphate buffer (pH 2.5), 1% MeOH. (v/v), and 50 mg/L EDTA-2Na.

[2] = RasV12-transfected cells, NaPB 6 h

With sodium phenylbutyrate [NaPB] the “reduction in striatal TH ODs” value ([1]; vs MPTP alone (70% reduction)) was “less reduction”, the “reduction in SNpc TH-positive neurons” value ([1]; vs MPTP alone (approximately 75% loss)) was “less reduction” and the “RasV12-induced activation of NF-κB” value (NF-κB; [2]) was “attenuated”. The “LPS-induced transcriptional activity of NF-κB” value (NF-κB; different concentrations, 6 h preincubation) was “suppressed”, the “MPP+-induced expression of TNF-α mRNA” value (TNF-α) was “inhibited” and the “MPP+-induced expression of IL-1β mRNA” value (IL-1β) was “inhibited”. For the same substance, the “MPP+-induced iNOS mRNA expression” value (iNOS; 6 h preincubation, 1 μM MPP+ 5 h) was “suppressed”, the “MPP+-induced iNOS protein expression” value (iNOS; 6 h preincubation, 1 μM MPP+ 24 h, Western blot) was “suppressed” and the “RasV12-induced expression of iNOS mRNA” value (iNOS; [2]) was “attenuated”. For the same substance, the “MPP+-induced production of intracellular ROS” value (BV-2 microglial cells) was “strongly inhibited”, the “inhibition of LPS-induced production of NO” value (“inhibition … of NO” below) (primary mouse microglia; 1 or 2 h preincubation (data not shown)) was “not sufficient” and the “inhibition … of NO” value (primary mouse microglia; higher concentrations (>200 μM), 6 h preincubation) was “markedly suppressed”. The “inhibition … of NO” value (primary mouse microglia; lower concentration (100 μM), 6 h preincubation) was “not effective”, the “level of p65 in the SNpc” value (NF-κB p65) was “markedly inhibited” and the “loss of nigral GSH” value (MPTP-intoxicated mice) was 18%.
